What was measured:
CYP2B6 = experiment: P450-Glo luminescence-based CYP induction assay in HepG2 cells, CYP2B6 (Luciferin-2B6); format: in vitro ADME, human; parameters: induction of CYP2B6 activity in HepG2 cells by positive control inducer: dose or concentration left out as unconfirmed
Experimental: CYP enzyme activity was measured using P50-Glo assay kits. Omeprazole (OPZ) 1 mM and rifampicin (RFC) 1 and 10 mM were used as positive controls for the luminescence-based assay. The data are expressed as a percentage of the control (DMSO 0.5%). Results are mean ± SEM of triplicate independent experiments.
HepG2 cells were seeded at a concentration of 3 × 10^4 cells per well for CYP1A2 and 1 × 10^5 cells per well for CYP2B6 and CYP2C9 in opaque white 96-well plates. After 24 h of incubation, the cells were combined with 0.5% DMSO (vehicle control), 1 mM omeprazole, 10 mM rifampicin, or 0.1–100 μM betanin for 48 h. The supernatant was then switched to fresh medium containing the same concentration of the compound and incubated for an additional 24 h. To measure luminescence, the culture medium was replaced with fresh medium containing the luciferin substrate and incubated at 37 °C in a 5% CO₂ incubator (Table 2). Next, 50 µL of each well was transferred to a well of a fresh 96-well opaque white cell culture plate and mixed with 50 µL of CYP Luciferin Detection Reagent at room temperature to initiate the enzymatic reaction. After incubation for 20 min, luminescence was measured using a SpectraMax M3 Multi-Mode Microplate Reader (Bio-Rad).

recombinant CYP2D6 = target: T1, recombinant CYP2D6 (Homo sapiens, UniProt P10635); experiment: Vivid fluorescence-based CYP inhibition assay, recombinant CYP2D6 (EOMCC substrate); format: in vitro ADME
T1 construct: purchased Thermo Fisher Scientific; host or cells: insect cells (microsomes)
T1 sequence (P10635 whole entry): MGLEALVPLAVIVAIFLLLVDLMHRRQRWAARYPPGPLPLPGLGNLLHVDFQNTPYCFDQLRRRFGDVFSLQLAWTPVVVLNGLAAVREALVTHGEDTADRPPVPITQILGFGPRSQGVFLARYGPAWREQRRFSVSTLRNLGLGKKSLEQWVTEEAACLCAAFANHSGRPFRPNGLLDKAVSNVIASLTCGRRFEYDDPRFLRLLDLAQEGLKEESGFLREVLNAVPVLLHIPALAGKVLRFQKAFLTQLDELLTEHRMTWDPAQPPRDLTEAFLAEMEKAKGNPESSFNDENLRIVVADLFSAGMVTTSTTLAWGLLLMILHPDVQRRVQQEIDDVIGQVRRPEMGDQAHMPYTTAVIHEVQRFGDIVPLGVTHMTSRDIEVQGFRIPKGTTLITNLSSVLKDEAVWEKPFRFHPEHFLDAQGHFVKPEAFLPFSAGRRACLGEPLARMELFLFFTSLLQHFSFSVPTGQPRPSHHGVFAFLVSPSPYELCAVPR
Experimental: (§1) We measured the activity of six representative CYPs using Vivid CYP screening kits. CYP activity was evaluated using recombinant CYPs and specific fluorescent substrates 7-ethoxymethoxy-3-cyanocoumarin (EOMCC) and 7-benzyloxymethyloxy-3-cyanocoumarin (BOMCC).
(§2) Raw fluorescence data were normalized against control activity values of 0% and 100%. Control 0% activity values were obtained from samples consisting of 0.5% DMSO and the enzyme solvent buffer without the enzyme. Maximum 100% activity values were expressed as a reaction with only enzymes and 0.5% DMSO, with no other drugs. Furafylline (FRL) 100 μM, bupropion (BPP) 50 μM, omeprazole (OPZ) 50 μM, fluvoxamine (FVX) 100 μM, quinidine (QND) 50 μM, and ketoconazole (KCZ) 1 μM were used as positive controls for the fluorescence-based assay. […] Raw data were normalized using the software GraphPad Prism 8.02. The data represent the mean ± SEM of triplicate independent experiments.
(§3) Fluorescence-based assays were performed according to the manufacturer’s instructions. […] The plates were immediately measured in the kinetic mode using a SpectraMax M3 Multi-Mode Microplate Reader (Bio-Rad, Hercules, CA, USA). […] The signals were measured using a SpectraMax M3 Multi-Mode Microplate Reader (Bio-Rad). Data fitting generated a sigmoidal dose–response curve with values calculated using Microsoft Excel 2016 (Microsoft Corporation, Redmond, WA, USA).

HepG2 cells = experiment: MTT cell viability assay; format: cell-based, human; conditions: 0.1–100 μM, 48 h
Experimental: Human hepatocellular carcinoma (HepG2) cells were cultured in Minimum Essential Medium (MEM) supplemented with 10% fetal bovine serum and 1% penicillin–streptomycin. HepG2 cells were maintained at 37 °C in a humidified environment with a 5% CO₂ atmosphere. The culture medium was replaced every day before measuring CYP activity. HepG2 cells were grown in opaque 96-well plates at a density of 1 × 10^4 cells/well. After 24 h, the cells were added with the desired concentration of betanin for 48 h. Next, 20 µL of 5 mg/mL MTT solution in PBS was added to each well and incubated for 2 h. After removing the supernatant, 100 µL of DMSO was dispensed into each well and the plate was incubated for 10 min.

recombinant CYP3A4 [1] = target: T2, recombinant CYP3A4 (Homo sapiens, UniProt P08684); experiment: Vivid fluorescence-based CYP inhibition assay, recombinant CYP3A4 (BOMCC substrate); format: in vitro ADME
T2 construct: purchased Thermo Fisher Scientific; host or cells: insect cells (microsomes)
T2 sequence (P08684 2-503 limits assumed): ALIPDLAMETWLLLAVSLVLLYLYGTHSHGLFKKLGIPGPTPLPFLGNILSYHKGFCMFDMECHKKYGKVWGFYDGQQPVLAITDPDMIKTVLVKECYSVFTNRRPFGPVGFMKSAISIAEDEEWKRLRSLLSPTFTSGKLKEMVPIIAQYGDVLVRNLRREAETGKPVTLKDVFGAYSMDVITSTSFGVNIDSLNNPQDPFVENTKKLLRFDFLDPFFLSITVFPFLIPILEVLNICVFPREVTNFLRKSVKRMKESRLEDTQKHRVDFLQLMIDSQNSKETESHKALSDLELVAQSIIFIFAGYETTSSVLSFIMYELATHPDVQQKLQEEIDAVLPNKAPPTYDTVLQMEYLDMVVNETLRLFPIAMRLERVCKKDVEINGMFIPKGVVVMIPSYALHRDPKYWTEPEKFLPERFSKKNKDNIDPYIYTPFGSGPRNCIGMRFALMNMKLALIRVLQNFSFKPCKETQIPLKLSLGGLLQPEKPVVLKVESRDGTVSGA
Experimental: as §1, §2
Fluorescence-based assays were performed according to the manufacturer’s instructions. Control, CYP positive control inhibitor, and betanin (0.1–100 μM) solutions were prepared by diluting the compounds with Vivid CYP Reaction Buffer (Table 1). Next, 40 µL of control, CYP positive control inhibitor, or betanin solution was dispensed into the wells of black 96-well plates. A Master Pre-Mix was prepared by diluting the P450 BAC-ULOSOMES Plus Reagent and Vivid Regeneration System in Vivid CYP Reaction Buffer. The P450 BACULOSOMES Plus Reagents are microsomes made from insect cells that express human cytochrome P450 reductase and CYP450 isozyme. […] The plates were immediately measured in the kinetic mode using a SpectraMax M3 Multi-Mode Microplate Reader (Bio-Rad, Hercules, CA, USA). […] The signals were measured using a SpectraMax M3 Multi-Mode Microplate Reader (Bio-Rad). Data fitting generated a sigmoidal dose–response curve with values calculated using Microsoft Excel 2016 (Microsoft Corporation, Redmond, WA, USA).

CYP1A2 = experiment: P450-Glo luminescence-based CYP induction assay in HepG2 cells, CYP1A2 (Luciferin-1A2); conditions: betanin 0.1–100 μM, versus control (DMSO 0.5%)
Source text: (§4) Results are mean ± SEM of triplicate independent experiments.

recombinant CYP1A2 = target: T3, recombinant CYP1A2 (Homo sapiens, UniProt P05177); experiment: Vivid fluorescence-based CYP inhibition assay, recombinant CYP1A2 (EOMCC substrate); format: in vitro ADME
T3 construct: purchased Thermo Fisher Scientific; host or cells: insect cells (microsomes)
T3 sequence (P05177 2-516 limits assumed): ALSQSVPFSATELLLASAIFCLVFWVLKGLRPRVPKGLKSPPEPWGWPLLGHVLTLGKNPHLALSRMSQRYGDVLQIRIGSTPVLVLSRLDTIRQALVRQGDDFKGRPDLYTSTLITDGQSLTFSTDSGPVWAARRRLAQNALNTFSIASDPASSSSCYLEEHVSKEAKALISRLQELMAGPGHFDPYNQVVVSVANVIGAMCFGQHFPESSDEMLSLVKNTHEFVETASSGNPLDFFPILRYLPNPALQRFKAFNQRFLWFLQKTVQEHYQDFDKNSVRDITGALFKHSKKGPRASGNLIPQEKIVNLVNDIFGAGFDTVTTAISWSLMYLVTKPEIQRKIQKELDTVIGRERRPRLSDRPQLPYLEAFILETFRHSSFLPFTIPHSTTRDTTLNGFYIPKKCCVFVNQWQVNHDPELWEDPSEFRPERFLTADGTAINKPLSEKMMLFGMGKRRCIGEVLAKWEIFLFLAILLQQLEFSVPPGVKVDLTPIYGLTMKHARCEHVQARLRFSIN
Experimental: as §1, §2, §3

recombinant CYP2B6 = target: T4, recombinant CYP2B6 (Homo sapiens, UniProt P20813); experiment: Vivid fluorescence-based CYP inhibition assay, recombinant CYP2B6 (BOMCC substrate); format: in vitro ADME
T4 construct: purchased Thermo Fisher Scientific; host or cells: insect cells (microsomes)
T4 sequence (P20813 1-491): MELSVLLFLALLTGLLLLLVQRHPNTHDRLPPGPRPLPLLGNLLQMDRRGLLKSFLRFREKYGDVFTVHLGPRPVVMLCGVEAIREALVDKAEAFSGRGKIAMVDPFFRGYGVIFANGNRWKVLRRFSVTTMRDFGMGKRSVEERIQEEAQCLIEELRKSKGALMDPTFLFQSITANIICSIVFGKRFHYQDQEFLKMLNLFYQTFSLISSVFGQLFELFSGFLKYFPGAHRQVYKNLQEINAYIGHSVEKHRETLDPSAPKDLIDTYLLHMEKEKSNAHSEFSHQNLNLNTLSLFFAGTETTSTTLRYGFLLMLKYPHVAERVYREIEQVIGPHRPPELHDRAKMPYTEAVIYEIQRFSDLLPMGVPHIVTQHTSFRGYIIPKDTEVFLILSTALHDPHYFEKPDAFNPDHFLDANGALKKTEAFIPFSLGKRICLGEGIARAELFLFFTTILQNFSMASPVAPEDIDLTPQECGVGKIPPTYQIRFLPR
Experimental: as §1, §2, §3

recombinant CYP2C19 = target: T5, recombinant CYP2C19 (Homo sapiens, UniProt P33261); experiment: Vivid fluorescence-based CYP inhibition assay, recombinant CYP2C19 (EOMCC substrate); format: in vitro ADME
T5 construct: purchased Thermo Fisher Scientific; host or cells: insect cells (microsomes)
T5 sequence (P33261 whole entry): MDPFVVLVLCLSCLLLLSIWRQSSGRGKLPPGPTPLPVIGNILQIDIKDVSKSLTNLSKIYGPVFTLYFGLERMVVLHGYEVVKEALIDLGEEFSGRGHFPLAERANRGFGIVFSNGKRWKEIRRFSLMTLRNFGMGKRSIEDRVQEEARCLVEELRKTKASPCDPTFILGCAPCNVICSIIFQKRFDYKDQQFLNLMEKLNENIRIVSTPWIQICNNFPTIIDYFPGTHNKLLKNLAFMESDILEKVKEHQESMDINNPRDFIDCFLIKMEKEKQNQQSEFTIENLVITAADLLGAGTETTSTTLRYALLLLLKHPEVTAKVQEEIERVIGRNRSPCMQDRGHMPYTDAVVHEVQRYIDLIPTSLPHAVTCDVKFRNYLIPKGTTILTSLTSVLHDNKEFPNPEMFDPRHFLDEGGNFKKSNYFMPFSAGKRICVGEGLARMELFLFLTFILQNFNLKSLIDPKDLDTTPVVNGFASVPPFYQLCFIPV
Experimental: as §1, §2, §3

recombinant CYP3A4 [2] = target: T2, recombinant CYP3A4; experiment: CYP3A4 enzyme kinetics, Lineweaver–Burk plot and secondary plot for Ki; format: in vitro ADME
Experimental: Next, we measured the kinetics of betanin metabolization by recombinant CYP3A4. Using the Michaelis constant (Km) and Vmax, we generated a Lineweaver–Burk plot. To obtain inhibition constant (Ki) values, various concentrations of BOMCC were incubated in the absence or presence of 3–100 μM betanin.
Data were obtained from 30 min incubation with BOMCC (1–20 μM) in the absence or presence of betanin (3–100 μM). All data are represented as mean ± SD from at least three independent experiments.
CYP activity was measured using Vivid CYP screening kits supplied with P450 BACULOSOMES Plus Reagent containing each CYP. The assays were conducted in the absence or presence of betanin and different concentrations of specific substrates. BOMCC was used as a specific substrate for CYP3A4. Lineweaver–Burk plots were generated for the determination of CYP activity in the absence or presence of betanin.

recombinant CYP2C9 = target: T6, recombinant CYP2C9 (Homo sapiens, UniProt P11712); experiment: Vivid fluorescence-based CYP inhibition assay, recombinant CYP2C9 (BOMCC substrate); format: in vitro ADME
T6 construct: purchased; host or cells: insect cells (microsomes)
T6 sequence (P11712 whole entry): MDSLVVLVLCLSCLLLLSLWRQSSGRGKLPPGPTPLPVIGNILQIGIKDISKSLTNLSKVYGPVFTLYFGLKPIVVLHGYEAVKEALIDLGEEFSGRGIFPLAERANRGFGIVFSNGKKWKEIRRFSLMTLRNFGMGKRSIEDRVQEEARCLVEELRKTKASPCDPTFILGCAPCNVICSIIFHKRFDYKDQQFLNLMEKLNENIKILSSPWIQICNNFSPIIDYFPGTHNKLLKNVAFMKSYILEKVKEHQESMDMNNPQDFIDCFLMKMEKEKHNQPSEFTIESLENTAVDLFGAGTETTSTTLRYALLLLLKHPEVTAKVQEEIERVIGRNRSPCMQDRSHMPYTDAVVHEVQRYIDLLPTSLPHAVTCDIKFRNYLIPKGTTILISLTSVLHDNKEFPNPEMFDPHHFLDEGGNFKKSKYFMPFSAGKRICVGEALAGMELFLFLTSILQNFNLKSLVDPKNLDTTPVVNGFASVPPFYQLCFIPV
Experimental: as §1, §2, §3

CYP2C9 = experiment: P450-Glo luminescence-based CYP induction assay in HepG2 cells, CYP2C9 (Luciferin-H); format: in vitro ADME, human; conditions: betanin 0.1–100 μM, versus control (DMSO 0.5%)
Source text: as §4

[3] = fluorescence-based, EOMCC substrate, betanin 0.1–100 μM
[4] = at any of the tested dosages (0.1–100 μM)
[5] = fluorescence-based, BOMCC substrate, betanin 0.1–100 μM

| induction of CYP2B6 activity in HepG2 cells by positive control inducer (CYP2B6; compared to the control group) | SMILES | induction effect on CYP2B6 activity in HepG2 cells (CYP2B6; betanin 0.1–100 μM, versus control (DMSO 0.5%)) | inhibitory effect on recombinant CYP2D6 (recombinant CYP2D6; 100 μM) [%] | IC50 (recombinant CYP2D6; [3]) [µM] | cytotoxicity toward HepG2 cells (MTT) (HepG2 cells) | inhibition of recombinant CYP3A4 (recombinant CYP3A4 [1]; 30 μM) [%] | inhibition of recombinant CYP3A4 (recombinant CYP3A4 [1]; 100 μM) [%] | IC50 (recombinant CYP3A4 [1]; fluorescence-based, BOMCC substrate, betanin 0.1–100 μM, 95% CI 19.09–23.06 μM) [µM] | induction effect on CYP1A2 activity in HepG2 cells (CYP1A2) | inhibitory effect on recombinant CYP1A2 (recombinant CYP1A2; [4]) [%] | IC50 (recombinant CYP1A2; [3]) [µM] | inhibitory effect on recombinant CYP2B6 (recombinant CYP2B6; [4]) [%] | IC50 (recombinant CYP2B6; [5]) [µM] | inhibitory effect on recombinant CYP2C19 (recombinant CYP2C19; [4]) [%] | IC50 (recombinant CYP2C19; [3]) [µM] | Ki (recombinant CYP3A4 [2]; 1–20 μM BOMCC, 3, 10, 30 and 100 μM betanin, 30 min incubation, read-out: Ki (inhibition constant) for CYP3A4) [µM] | mode of inhibition of CYP3A4 (recombinant CYP3A4 [2]; Lineweaver–Burk and secondary plots) | inhibitory effect on recombinant CYP2C9 (recombinant CYP2C9; [4]) [%] | IC50 (recombinant CYP2C9; [5]) [µM] | induction effect on CYP2C9 activity in HepG2 cells (CYP2C9) |
| --- | --- | --- | --- | --- | --- | --- | --- | --- | --- | --- | --- | --- | --- | --- | --- | --- | --- | --- | --- | --- |
| significantly induced | CO[C@H]1/C=C/O[C@@]2(C)Oc3c(C)c(O)c4c(O)c(c(/C=N/N5CCN(C)CC5)c(O)c4c3C2=O)NC(=O)/C(C)=C\C=C\[C@H](C)[C@H](O)[C@@H](C)[C@@H](O)[C@@H](C)[C@H](OC(C)=O)[C@@H]1C [rifampin, reference compound] |  |  |  |  |  |  |  |  |  |  |  |  |  |  |  |  |  |  |  |
|  | O=C(O)C1=C/C(=C/C=[N+]2/c3cc(O)c(OC4OC(CO)[C@@H](O)C(O)C4O)cc3CC2C(=O)[O-])CC(C(=O)O)N1 (stereo in doubt) [betanin, Betanin] | did not show any induction effect | 33 | > 100 | no cytotoxicity | 58 | 87 | 21 | did not show any induction effect | ≤ 30 | > 100 | ≤ 30 | > 100 | ≤ 30 | > 100 | 19.5 | competitive inhibitor | ≤ 30 | > 100 | did not show any induction effect |
